For twelve compounds, IC50 results are on record in patent US11976057B2, “MrgX2 antagonists” (GlaxoSmithKline Intellectual Property Development Limited, priority 2020, dated 2024).

The assay deals with T1, human MRGPRX2 (Homo sapiens, UniProt Q96LB1).
T1 sequence (Q96LB1 1-330): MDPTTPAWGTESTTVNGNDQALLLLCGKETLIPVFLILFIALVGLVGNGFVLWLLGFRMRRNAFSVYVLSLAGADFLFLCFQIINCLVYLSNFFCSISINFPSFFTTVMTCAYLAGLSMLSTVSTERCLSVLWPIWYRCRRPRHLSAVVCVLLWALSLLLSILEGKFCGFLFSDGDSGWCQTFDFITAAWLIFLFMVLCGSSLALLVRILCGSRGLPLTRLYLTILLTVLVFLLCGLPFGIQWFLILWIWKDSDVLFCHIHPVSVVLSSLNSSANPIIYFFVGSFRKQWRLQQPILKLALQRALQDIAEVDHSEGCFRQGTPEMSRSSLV
Kind of assay: Ca2+ mobilization assay (FLIPR TETRA): inhibition of Cortistatin-14 mediated MRGPRX2 activation.

Molecules are shown by their SMILES. Where only a bound is given, the exact number is not on record here.

For the compound `C[C@@H](C(=O)Nc1ccc(Oc2ccc(F)cc2F)cn1)[C@H]1CCC[C@@H](c2cc[n+]([O-])cc2)C1` [Example 289, 4-((1R,3S)-3-((R)-1-((5-(2,4-difluorophenoxy)pyridin-2-yl)amino)-1-oxopropan-2-yl)cyclohexyl)pyridine 1-oxide], the concentration for half-maximal inhibition (IC50) is ≤ 10 nM.

Regarding `CC(C(=O)Nc1ccc(F)cn1)N1CCC(F)(F)C(c2ccc(=O)n(Cc3ccccn3)c2)C1` (stereo not drawn) [Example 196, 2-(4,4-difluoro-3-(6-oxo-1-(pyridin-2-ylmethyl)-1,6-dihydropyridin-3-yl)piperidin-1-yl)-N-(5-fluoropyridin-2-yl)propanamide], the IC50 was 10 to 100 nM.

The compound `C[C@@H](C(=O)Nc1ccc(OCC2CC2)cn1)N1CCC(F)(F)[C@@H](c2c[nH]c(=O)c(N)c2)C1` [Example 138, (S)-2-((S)-3-(5-amino-6-oxo-1,6-dihydropyridin-3-yl)-4,4-difluoropiperidin-1-yl)-N-(5-(cyclopropylmethoxy)pyridin-2-yl)propanamide] returned a concentration for half-maximal inhibition (IC50) of 10 to 100 nM.

`CC(C)Oc1ccc(NC(=O)C(C)N2CCC(F)(F)[C@@H](c3ccc(=O)[nH]c3)C2)nc1` (stereo partly drawn) [Example 26, 2-((S)-4,4-difluoro-3-(6-oxo-1,6-dihydropyridin-3-yl)piperidin-1-yl)-N-(5-isopropoxy-pyridin-2-yl)propanamide] returned an IC50 of 100 to 3160 nM.

`C[C@@H](C(=O)Nc1ccc(Oc2ncc(F)cc2F)cn1)[C@H]1CCC(F)(F)[C@@H](c2ccc(=O)[nH]c2)C1` [Example 281, (R)-2-((1S,3R)-4,4-difluoro-3-(6-oxo-1,6-dihydropyridin-3-yl)cyclohexyl)-N-(5-((3,5-difluoropyridin-2-yl)oxy)pyridin-2-yl)propanamide]: the IC50 was ≤ 10 nM.

Regarding `CC(C(=O)Nc1ncc(Oc2ccc(F)cc2F)cc1F)N1CCC(F)(F)[C@@H](c2ccc(=O)[nH]c2)C1` (stereo partly drawn) [Example 87, 2-((S)-4,4-difluoro-3-(6-oxo-1,6-dihydropyridin-3-yl)piperidin-1-yl)-N-(5-(2,4-difluorophenoxy)-3-fluoropyridin-2-yl)propanamide], the half-inhibitory concentration (IC50) was ≤ 10 nM.

For the compound `C[C@@H](C(=O)Nc1ccc(Oc2cc(F)c(F)cc2F)cn1)N1CCC(F)(F)[C@@H](c2ccc(=O)[nH]c2)C1` [Example 97, (S)-2-((S)-4,4-difluoro-3-(6-oxo-1,6-dihydropyridin-3-yl)piperidin-1-yl)-N-(5-(2,4,5-trifluorophenoxy)pyridin-2-yl)propanamide], the IC50 is ≤ 10 nM.

In turn, `Cc1cc(C2CN([C@@H](C)C(=O)Nc3ccc(F)cn3)CCC2(F)F)cc[n+]1[O-]` (stereo partly drawn) [Example 217, 4-(4,4-difluoro-1l-((S)-1-((5-fluoropyridin-2-yl)amino)-1-oxopropan-2-yl)piperidin-3-yl)-2-methylpyridine 1-oxide] showed an IC50 of 100 to 3160 nM.

Take `C[C@@H](C(=O)Nc1ccc(Oc2ccc(F)cc2)cn1)N1CCC(F)(F)[C@@H](c2c[nH]c(=O)c(CS(C)(=O)=O)c2)C1` [Example 214, (S)-2-((S)-4,4-difluoro-3-(5-((methylsulfonyl)methyl)-6-oxo-1,6-dihydropyridin-3-yl)piperidin-1-yl)-N-(5-(4-fluorophenoxy)pyridin-2-yl)propanamide]: the IC50 is ≤ 10 nM.

Compound `C[C@@H](C(=O)Nc1ccc(F)cn1)N1CCC(F)(F)C(c2ccc(=O)n(CCS(C)(=O)=O)c2)C1` (stereo partly drawn) [Example 190, (2S)-2-(4,4-difluoro-3-(1-(2-(methylsulfonyl)ethyl)-6-oxo-1,6-dihydropyridin-3-yl)piperidin-1-yl)-N-(5-fluoropyridin-2-yl)propanamide] showed an IC50 of 100 to 3160 nM.

`C[C@@H](C(=O)Nc1ccc(Oc2ccc(F)cc2CN(C)C)cn1)N1CCC(F)(F)[C@@H](c2ccc(=O)[nH]c2)C1` [Example 98, (S)-2-((S)-4,4-difluoro-3-(6-oxo-1,6-dihydropyridin-3-yl)piperidin-1-yl)-N-(5-(2-((dimethylamino)methyl)-4-fluorophenoxy)pyridin-2-yl)propanamide] returned a concentration for half-maximal inhibition (IC50) of 100 to 3160 nM.

Consider `C[C@@H](C(=O)Nc1ccc(/C=C/C2CC2)cn1)N1CCC(F)(F)[C@@H](c2ccc(=O)[nH]c2)C1` [Example 10], for which the IC50 fell in the range of 10 to 100 nM.
